Laboratory results from patent US20060009428A1, “Cyclic progestin regimens and kits” (Wyeth, priority 2004, published 2006).
Where “and” joins values, the source holds several entries; their conditions need not be identical. Equal values may be shown once.

Legend:
Assay type in all cases: in vivo
progesterone receptor = biological target: T1, progesterone receptor (Rattus norvegicus, UniProt Q63449); assay: Rat uterine decidualization assay in adult ovariectomized rats; details: for ED50: rat, read-out: Rat Decidual Assay ED50
T1 construct: the uterine decidualization assay in adult ovariectomized rats; from tissue; host or cells: uterus of live ovariectomized Sprague-Dawley rats (in vivo)
T1 sequence (Q63449 1-923): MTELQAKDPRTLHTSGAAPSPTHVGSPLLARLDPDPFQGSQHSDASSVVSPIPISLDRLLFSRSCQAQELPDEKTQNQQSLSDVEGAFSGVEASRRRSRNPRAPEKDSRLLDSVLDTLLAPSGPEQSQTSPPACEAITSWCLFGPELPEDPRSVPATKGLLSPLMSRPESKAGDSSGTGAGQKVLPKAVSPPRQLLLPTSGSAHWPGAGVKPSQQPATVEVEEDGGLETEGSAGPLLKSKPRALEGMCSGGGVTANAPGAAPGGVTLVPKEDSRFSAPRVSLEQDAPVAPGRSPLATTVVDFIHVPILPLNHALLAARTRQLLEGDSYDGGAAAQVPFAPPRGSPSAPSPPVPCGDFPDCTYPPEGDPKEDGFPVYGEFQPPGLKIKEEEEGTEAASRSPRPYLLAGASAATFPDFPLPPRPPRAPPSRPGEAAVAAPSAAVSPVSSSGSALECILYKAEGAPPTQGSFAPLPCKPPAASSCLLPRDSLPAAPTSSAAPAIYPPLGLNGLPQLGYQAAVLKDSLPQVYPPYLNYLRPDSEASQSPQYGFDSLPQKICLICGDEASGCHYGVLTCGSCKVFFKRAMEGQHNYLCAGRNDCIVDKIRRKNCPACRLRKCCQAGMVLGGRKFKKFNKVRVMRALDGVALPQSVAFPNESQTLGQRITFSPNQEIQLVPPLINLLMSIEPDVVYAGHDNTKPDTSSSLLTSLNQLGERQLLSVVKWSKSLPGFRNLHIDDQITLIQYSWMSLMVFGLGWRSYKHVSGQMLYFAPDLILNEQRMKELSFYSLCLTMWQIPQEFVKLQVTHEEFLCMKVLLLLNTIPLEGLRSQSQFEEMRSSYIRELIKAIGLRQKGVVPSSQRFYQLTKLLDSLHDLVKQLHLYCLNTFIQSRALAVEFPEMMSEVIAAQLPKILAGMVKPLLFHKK
Description: The second rat model to determine progestational activity is the uterine decidualization assay in adult ovariectomized rats.
Briefly, mature female Sprague-Dawley rats (˜220 g) were ovariectomized at least 10 days prior to treatment to reduce circulating sex steroids. […] Approximately 24 hours after the third daily treatment, decidualization was induced in onel uterine horn of each anesthetized rat by scratching the antimesometrial luminal epithelium with a blunt 21-gauge needle. The contralateral horn was not scratched and served as a non-stimulated control. Animals were euthanized by CO2 asphyxiation 24 hoursr following the final treatment. The uteri were removed, and trimmed of fat, and the decidualized (D) and control (C) horns were weighed separately. The decidual response is expressed as D/C.

[1] = test system: ovulation in adult female rats; assay: Rat ovulation inhibition assay; details: po, once daily for 4 days, Sprague-Dawley rats
Description: The ovulation inhibition assay measures a compound's ability to inhibit ovulation in adult female rats. This activity is essential for contraceptive efficacy.
Random cycling mature female Sprague-Dawley rats (˜200 g) were obtained from Charles River Laboratory (Boston, Mass.). Rats were synchronized for estrus with 2 μg of LHRH (in phosphate buffered saline containing 0.1% bovine serum albumin) administered subcutaneously (sc) per rat at 0900 h and again at 1600 h. Animals were allowed to rest for 8 days before the administration of test compounds. Animals were then grouped, with 7 to 9 rats per treatment group. The morning of the ninth day following LHRH treatment, the rats were treated with test compounds once daily, by gavage. This continued for 4 consecutive days. The animals were euthanized the morning following the last treatment. Oviducts were removed, placed between 2 glass slides, and viewed through a dissecting microscope to count ova. The number of animals presenting ova in the oviduct from each treatment group and the number of ova in the oviduct of each animal were recorded.

[2] = test system: estrogen-induced C3 expression in the uterine epithelium; assay: Adult ovariectomized rat uterine C3 model; details: po, once daily for 2 days, with EE 0.08 mg/kg on day 2; for ED50: Rattus norvegicus, 48 h
Description: The third model for PR agonist activity was the adult ovariectomized rat uterine C3 model. This assay evaluates the ability of a progestin to block estrogen-induced C3 expression in the uterine epithelium.
Ovariectomized female, 60 day-old Sprague-Dawley rats were obtained from Harlan (Indianapolis, Ind.). Ovariectomies were performed by the supplier a minimum of 8 days prior tobefore treatment. The rats were randomized and placed in groups of 6. The animals were treated once daily for (2) two days orally by gavage (p.o.) in a volume of 0.5 mL. On the second day of treatment, the animals were also treated with EE (0.08 mg/kg body weight (BW)) orally by gavage. Approximately 24 hours after the final treatment, the animals were euthanized by CO2 asphyxiation. The uteri were then removed, stripped of remaining fat and mesentery, weighed, and snap-frozen on dry ice. Total RNA was isolated from the uteri using the Trizol Reagent (GibcoBRL) as described by the manufacturer. Real-time reverse transcription polymerase chain reaction (RT-PCR) as previously reported [Sampath D, et al., “Aberrant expression of Cyr61, a member of the CCN (CTGF/Cyr61/Cef10/NOVH) family, and dysregulation by 17b-estradiol and basic fibroblast growth factor in human uterine leiomyomas” J Clin Endocrinol Metab. 2001; 86:1707-1715] was used to quantitate complement C3 expression. Briefly, RNA samples were DNAse-I treated using a DNA-free kit (Ambion). A total of 50 ng of RNA was analyzed in triplicate using C3 specific primer pair (5′primer […] [SEQ ID NO: 1], 3]primer […] [SEQ ID NO: 2]) and customized probe (6FAM-[…]-TAMRA [SEQ ID NO: 3]). C3 messenger RNA (mRNA) levels were normalized to 18s 18S ribosomal RNA contained within each sample reaction using primers and probe supplied by PE Applied Biosystems.

[3] = test system: rabbit endometrial transformation; assay: Rabbit endometrial transformation (Clauberg) assay; details: for ED50: Oryctolagus cuniculus, 120 h, read-out: Rabbit Clauberg Assay estimated ED50 (AED50)
Description: In addition to the rat progestational models described above, NSP-989 was also evaluated in the Clauberg model, a classic progestational assay in the rabbit endometrial transformation model [McPhail MK, “The assay of progestin.” J Physiol. 1934; 83:145-1567]. Briefly, immature female New Zealand White rabbits (˜1 kg body weight) were injected subcutaneously with 5 μg 17β-estradiol (E2)/rabbit/day for six consecutive days. Beginning 24 hours after the final E2 injection, vehicle alone or test compounds were given orally for (5) five consecutive days. Progestational activity was determined by increases in uterine weight and endometrial glandular arborization (McPhail Index).

[4] = po, once daily for 7 days, ovariectomized rats
[5] = po, 5 days, estradiol-primed immature rabbits, limited dose response studies

| SMILES | ED50 (progesterone receptor; [4]) | Rat Ovulation Inhibition Assay ED100 [1] | ED50 [2] | ED50 [3, 5] | Potency in decidualization relative to MPA (fold more potent) (progesterone receptor; versus MPA) | Potency in decidualization relative to TMG (fold more potent) (progesterone receptor; versus TMG) | Potency in Clauberg assay relative to MPA (fold more potent) ([3]; versus MPA) | Rat Decidual Assay ED50 (progesterone receptor; [4]) | Rat C3 Assay ED50 [2] | Rabbit Clauberg Assay estimated ED50 (AED50) [3, 5] |
| --- | --- | --- | --- | --- | --- | --- | --- | --- | --- | --- |
| CC(=O)O[C@]1(C(C)=O)CC[C@H]2[C@@H]3C[C@H](C)C4=CC(=O)CC[C@]4(C)[C@H]3CC[C@@]21C [MPA, medroxyprogesterone acetate] | 0.4 mg/kg | 1 mg/kg and 1.0 mg/kg | 0.03 mg/kg | 0.03 mg/kg | – | – | – | – | – | – |
| Cn1c(C#N)ccc1-c1ccc2c(c1)C(C)(C)OC(=S)N2 [NSP-989, 5-(4,4-Dimethyl-2-thioxo-1,4-dihydro-2H-benzo[d] [1,3]oxazin-6-yl)-1-methyl-1H-pyrrole-2-carbonitrile] | 0.01 mg/kg | 0.03 mg/kg | 0.0005 mg/kg | 0.001 mg/kg | approximately 40 fold | ~100 fold | about 30 fold | – | – | – |
| C[C@H](O)C(=O)[C@@]1(C)CC[C@H]2[C@@H]3CCC4=CC(=O)CCC4=C3CC[C@@]21C [TMG, trimegestone] | – | 1 mg/kg and 1.0 mg/kg | – | – | – | – | – | 1.0 mg/kg | 0.005 mg/kg | 0.001 mg/kg |
